Experimental data as given in publication PMC9024521, “4-Heteroaryl Substituted Amino-3,5-Dicyanopyridines as New Adenosine Receptor Ligands: Novel Insights on Structure-Activity Relationships and Perspectives” (Pharmaceuticals, 2022).

Experiments:
[1] = In vitro permeation, vertical Franz diffusion cell; type: in vitro ADME; conditions: cellulose nitrate membrane impregnated with lauryl alcohol, PBS pH 7.4 + Tween 80 2% w/w, 37 °C
Procedure: Compounds 1 and 5 were evaluated for their capability to penetrate the artificial membrane simulating the epidermal barrier. Permeation flux was assessed by using vertical Franz diffusion cells.
Compound assay was performed by HPLC (Merck Hitachi Elite LaChrom apparatus, Darmstadt, Germany), equipped with a L-2400 UV–Vis detector and an L-2130 isocratic pump. The mobile phase A was water, and the mobile phase B was methanol. Gradient steps were programmed as follows: A–B 60%–40% at time 0, ramped to 70% B in 3 min, held at 70% for 2 min and returned to initial conditions during 3 min. A Hibar Purospher® RP-8e (150 × 4.6 mm, 5 µm pore size) was the stationary phase. UV detection was performed at 292 nm. The injection volume was 20 µL, the flow rate was 1.2 mL/min and the column temperature was 40 ± 1 °C. Under these conditions, the compounds retention time was 5.30 ± 0.01 min. The method was validated for linearity (r^2 = 0.998; r^2 = 0.997), limit of quantification (3.03 µg/mL; 4.50 µg/mL) and limit of detection (0.91 µg/mL; 1.35 µg/mL) for P293BL and P297, respectively.
In vitro permeation studies were carried out by using vertical Franz diffusion cell (Rofarma, Gaggiano, Italy). […] A correction for the cumulative dilution, due to the sample replacement with an equal volume of fresh medium, was calculated. […]

hA2AAR = target: T1, hA2AAR (Homo sapiens, UniProt P29274); assay: cAMP assay in hA2A CHO cells; type: cell-based; conditions: for EC50: cAMP assay, hA2A CHO cells; for hA2AAR Efficacy: normalized: CGS21680 full agonist = 100%
T1 construct: host or cells: CHO cells
T1 sequence (P29274 whole entry): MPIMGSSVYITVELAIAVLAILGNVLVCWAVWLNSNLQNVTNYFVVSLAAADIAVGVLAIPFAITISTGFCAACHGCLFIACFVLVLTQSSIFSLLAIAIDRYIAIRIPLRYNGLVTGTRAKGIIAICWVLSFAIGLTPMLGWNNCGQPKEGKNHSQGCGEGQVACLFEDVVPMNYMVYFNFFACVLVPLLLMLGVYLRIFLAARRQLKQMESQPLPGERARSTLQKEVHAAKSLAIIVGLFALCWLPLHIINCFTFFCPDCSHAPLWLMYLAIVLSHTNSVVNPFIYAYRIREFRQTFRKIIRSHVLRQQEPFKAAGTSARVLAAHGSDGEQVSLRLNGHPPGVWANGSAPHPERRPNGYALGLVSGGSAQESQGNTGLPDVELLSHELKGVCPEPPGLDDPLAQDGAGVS
Procedure: The amino-3,5-dicyanopyridines 1–21 were tested for their affinity at hA1, hA2A and hA3 ARs, stably transfected in Chinese Hamster Ovary (CHO) cells. Moreover, they were also studied as hA2B agonists by evaluating their stimulatory effect on cAMP production in CHO cells, stably expressing the hA2B AR. […] Due to their interesting pan profile, both compounds 1 and 5 were evaluated as AR agonists also at the hA2A and hA3 subtypes.
CHO cells transfected with hA1, hA2A, hA2B and hA3 ARs (Perkin Elmer, Boston, MA, USA) were grown adherently and maintained in Dulbecco’s modified Eagle’s medium with nutrient mixture F12, containing 10% fetal calf serum, penicillin (100 U/mL), streptomycin (100 μg/mL), L-glutamine (2 mM) and geneticine (G418; 0.2 mg/mL), at 37 °C, in 5% CO2/95% air, until their use in cAMP assays. For membrane preparation, the culture medium was removed, and the cells were washed with phosphate-buffered saline and scraped off T75 flasks in ice-cold hypotonic buffer (5 mM Tris HCl, 1 mM EDTA, pH 7.4). The cell suspension was homogenized with a Polytron, centrifuged for 30 min at 40,000× g, at 4 °C, and the resulting membrane pellet was used for competition binding experiments.
CHO cells transfected with hAR subtypes were washed with phosphate-buffered saline, detached with tripsine and centrifuged for 10 min at 200× g. Cells were seeded in a 96-well white half-area microplate (Perkin Elmer, Boston, USA) in a stimulation buffer composed of Hank Balanced Salt Solution, 5 mM HEPES, 0.5 mM Ro 20–1724, 0.1% BSA. The cAMP levels were then quantified by using the AlphaScreen cAMP Detection Kit (Perkin Elmer, Boston, MA, USA), following the manufacturer’s instructions. At the end of the experiments, the plates were read with a Perkin Elmer EnSight Multimode Plate Reader.

Structure (SMILES) | amount of permeated drug after 24 h [1] | EC50 (hA2AAR) | hA2AAR Efficacy (hA2AAR)
N#Cc1c(N)nc(SCc2ncc[nH]2)c(C#N)c1-c1cccs1 [Compound 5, 2-Amino-6-[(1H-imidazol-2-ylmethyl)sulfanyl]-4-(thiophen-2-yl)pyridine-3,5-dicarbonitrile] | 22.7 ± 1.0 µg/mL | 11.3 ± 1 nM | 40 ± 3%
N#Cc1c(N)nc(SCc2ncc[nH]2)c(C#N)c1-c1ccco1 [Compound 1, 2-Amino-4-(furan-2-yl)-6-[(1H-imidazol-2-ylmethyl)sulfanyl]pyridine-3,5-dicarbonitrile] | 15.0 ± 1.4 µg/mL | 15.1 ± 1.3 nM | 39 ± 3%
